Data reported in patent publication US20200131129A1, “FARNESOID X RECEPTOR AGONISTS AND USES THEREOF” (Metacrine, Inc., priority 2017, published 2020).

Molecular target: T1, hFXR (Homo sapiens, UniProt Q96RI1)
T1 construct: expressed in transfected cells; host or cells: CV-1 cells
T1 sequence (Q96RI1 1-486): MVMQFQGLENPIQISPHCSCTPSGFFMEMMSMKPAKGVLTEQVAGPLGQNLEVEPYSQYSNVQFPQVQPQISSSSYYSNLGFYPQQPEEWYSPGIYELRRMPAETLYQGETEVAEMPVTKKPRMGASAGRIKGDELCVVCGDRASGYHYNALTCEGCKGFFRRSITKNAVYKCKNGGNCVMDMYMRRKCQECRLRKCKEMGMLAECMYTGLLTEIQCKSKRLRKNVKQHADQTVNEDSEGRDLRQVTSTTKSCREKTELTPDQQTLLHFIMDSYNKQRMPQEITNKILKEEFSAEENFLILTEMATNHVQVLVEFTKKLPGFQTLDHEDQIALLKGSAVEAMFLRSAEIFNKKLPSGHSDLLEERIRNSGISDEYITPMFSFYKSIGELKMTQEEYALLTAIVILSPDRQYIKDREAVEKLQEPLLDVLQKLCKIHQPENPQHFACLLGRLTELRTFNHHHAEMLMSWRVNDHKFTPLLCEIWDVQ
T1 sequence (P19793 1-462 partner): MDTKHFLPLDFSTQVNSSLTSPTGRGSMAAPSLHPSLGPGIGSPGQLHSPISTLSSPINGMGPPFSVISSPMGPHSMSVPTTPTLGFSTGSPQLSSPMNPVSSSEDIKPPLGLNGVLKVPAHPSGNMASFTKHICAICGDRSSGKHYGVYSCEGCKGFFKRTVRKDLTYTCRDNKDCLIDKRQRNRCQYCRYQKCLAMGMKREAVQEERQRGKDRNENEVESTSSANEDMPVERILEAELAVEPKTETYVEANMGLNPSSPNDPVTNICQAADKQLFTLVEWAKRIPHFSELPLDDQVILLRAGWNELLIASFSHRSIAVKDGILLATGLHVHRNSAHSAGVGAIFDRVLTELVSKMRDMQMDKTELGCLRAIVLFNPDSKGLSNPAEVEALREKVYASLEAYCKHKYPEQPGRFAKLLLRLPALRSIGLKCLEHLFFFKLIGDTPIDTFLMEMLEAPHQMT
Assay: In Vitro FXR Assay (TK): hFXR/hRXR TK-ECRE-luc reporter in transfected CV-1 cells
Assay type: cell-based
Settings: CV-1 cells transfected with hFXR, hRXR, 18 hrs incubation, luminescence, maximum efficacy <25% of Fexarmine control also classified as ‘+’
Procedure: Example B-1: In Vitro FXR Assay (TK)
CV-1 cells were seeded at a density of 2,000,000 cells in a T175 flask with DMEM+10% charcoal double-stripped FBS and incubated at 37° C. in 5% CO2 for 18 h (O/N).
After 18 h of incubation, the medium in the T175 flask was changed with fresh DMEM+10% charcoal super-stripped serum. In a polypropylene tube, 2500 μL OptiMEM (Life Technologies, Cat #31985-062) was combined with expression plasmids for hFXR, hRXR, TK-ECRE-luc and pCMX-YFP. The tube was then briefly vortexed and incubated at room temperature for 5 minutes. Transfection reagent (X-tremeGENE HP from Roche, Cat #06 366 236 001) was added to the OptiMEM/plasmid mixture vortexed and incubated at room temperature for 20 minutes. Following incubation, the transfection reagent/DNA mixture complex was added to cells in the T175 flask and the cells were incubated at 37° C. in 5% CO2 for 18 h (0/N).
Compounds were serially diluted in DMSO and added to transfected CV-1 cells. The cells were then incubated for 18 hrs. The next day cells were lysed and examined for luminescence.

COc1ccc([C@H]2CC[C@H](CN(c3cccc(-c4ccc(OC(C)C)nc4)c3)C(=O)[C@H]3CC[C@H](O)CC3)CC2)cc1C [Compound 1.06, trans-4-Hydroxy-N-(3-(6-isopropoxypyridin-3-yl)phenyl)-N-((trans-4-(4-methoxy-3-methylphenyl)cyclohexyl)methyl)cyclohexanecarboxamide]
EC50: ≤ 0.5 µM

COc1ccc([C@H]2CC[C@H](CN(c3cc(-c4coc(C(C)C)n4)ccn3)C(=O)[C@H]3CC[C@H](O)CC3)CC2)cc1C [Compound 10.13, trans-4-Hydroxy-N-(4-(2-isopropyloxazol-4-yl)pyridine-2-yl)-N-((trans-4-(4-methoxy-3-methylphenyl)cyclohexyl)methyl) cyclohexanecarboxamide]
EC50: ≤ 0.5 µM

COc1ccc([C@H]2CC[C@H](CN(c3cccc(-c4ncsn4)c3)C(=O)[C@H]3CC[C@H](O)CC3)CC2)cc1C [Compound 9.07, trans-N-(3-(1,2,4-Thiadiazol-3-yl)phenyl)-4-hydroxy-N-((trans-4-(4-methoxy-3-methylphenyl)cyclohexyl)methyl) cyclohexanecarboxamide]
EC50: 0.5 to 1 µM

COc1ccc([C@H]2CC[C@H](CN(c3cccc(-c4coc(C5CC5)n4)c3)C(=O)[C@H]3CC[C@H](O)CC3)CC2)cc1C [Compound 9.15]
EC50: ≤ 0.5 µM

COc1cnc([C@H]2CC[C@H](CN(c3cccc(-c4coc(C5CC5)n4)c3)C(=O)[C@H]3CC[C@H](O)CC3)CC2)cc1C [Compound 10.16, trans-N-(3-(2-Cyclopropyloxazol-4-yl)phenyl)-4-hydroxy-N-((trans-4-(5-methoxy-4-methylpyridin-2-yl)cyclohexyl)methyl) cyclohexanecarboxamide]
EC50: 0.5 to 1 µM

COc1ccc([C@H]2CC[C@H](CN(c3cccc(-c4cnn(C)n4)c3)C(=O)[C@H]3CC[C@H](O)CC3)CC2)cc1C [Compound 2.09, trans-4-Hydroxy-N-((trans-4-(4-methoxy-3-methylphenyl)cyclohexyl)methyl)-N-(3-(2-methyl-2H-1,2,3-triazol-4-yl)phenyl)cyclohexanecarboxamide]
EC50: ≥ 1 µM

COc1ccc([C@H]2CC[C@H](CN(c3cccc(-c4ccc(N(C)C)nc4)c3)C(=O)[C@H]3CC[C@H](O)CC3)CC2)nc1C [Compound 10.15, trans-N-(3-(6-(Dimethylamino)pyridine-3-yl)phenyl)-4-hydroxy-N-((trans-4-(5-methoxy-6-methylpyridin-2-yl)cyclohexyl)methyl) cyclohexanecarboxamide]
EC50: ≤ 0.5 µM

COc1ncc([C@H]2CC[C@H](CN(c3cc(-c4coc(C5CC5)n4)ccn3)C(=O)[C@H]3CC[C@H](O)CC3)CC2)cc1Cl [Compound 10.24, trans-N-((trans-4-(5-Chloro-6-methoxypyridin-3-yl)cyclohexyl)methyl)-N-(4-(2-cyclopropyloxazol-4-yl)pyridin-2-yl)-4-hydroxycyclohexanecarboxamide]
EC50: ≤ 0.5 µM

COc1ccc([C@H]2CC[C@H](CN(c3cc(-c4coc(C5CC5)n4)ccn3)C(=O)[C@H]3CC[C@H](O)CC3)CC2)cc1C#N [Compound 10.12, trans-N-((trans-4-(3-Cyano-4-methoxyphenyl)cyclohexyl)methyl)-N-(4-(2-cyclopropyloxazol-4-yl)pyridine-2-yl)-4-hydroxycyclohexanecarboxamide]
EC50: ≤ 0.5 µM

COc1ccc([C@H]2CC[C@H](CN(c3cccc(-c4cncc(C(F)(F)F)c4)c3)C(=O)[C@H]3CC[C@H](O)CC3)CC2)cc1C [Compound 1.05, trans-4-Hydroxy-N-((trans-4-(4-methoxy-3-methylphenyl)cyclohexyl)methyl)-N-(3-(5-(trifluoromethyl)pyridine-3-yl)phenyl)cyclohexanecarboxamide]
EC50: ≥ 1 µM

COc1ccc([C@H]2CC[C@H](CN(c3cccc(-c4ccc(C5CC5)nc4)c3)C(=O)[C@H]3CC[C@H](O)CC3)CC2)cc1C [Compound 1.07, trans-N-(3-(6-Cyclopropylpyridin-3-yl)phenyl)-4-hydroxy-N-((trans-4-(4-methoxy-3-methylphenyl)cyclohexyl)methyl)cyclohexanecarboxamide]
EC50: ≤ 0.5 µM

COc1ccc([C@H]2CC[C@H](CN(c3cccc(-c4nnn(C)n4)c3)C(=O)[C@H]3CC[C@H](O)CC3)CC2)cc1C [Compound 5, trans-4-Hydroxy-N-((trans-4-(4-methoxy-3-methylphenyl)cyclohexyl)methyl)-N-(3-(2-methyl-2H-tetrazol-5-yl)phenyl)cyclohexanecarboxamide]
EC50: ≥ 1 µM

COc1ccc(C23CCC(CN(c4cccc(-c5coc(C6CC6)n5)c4)C(=O)[C@H]4CC[C@H](O)CC4)(CC2)CC3)cc1C [Compound 10]
EC50: ≤ 0.5 µM

COc1ccc([C@H]2CC[C@H](CN(c3cccc(-c4ncco4)c3)C(=O)[C@H]3CC[C@H](O)CC3)CC2)cc1C [Compound 3.01, trans-4-Hydroxy-N-((trans-4-(4-methoxy-3-methylphenyl)cyclohexyl)methyl)-N-(3-(oxazol-2-yl)phenyl)cyclohexanecarboxamide]
EC50: ≥ 1 µM

CCc1nc(-c2ccnc(N(C[C@H]3CC[C@H](c4ccc(OC)c(C)n4)CC3)C(=O)[C@H]3CC[C@H](O)CC3)c2)co1 [Compound 10.22, trans-N-(4-(2-Ethyloxazol-4-yl)pyridin-2-yl)-4-hydroxy-N-((trans-4-(5-methoxy-6-methylpyridin-2-yl)cyclohexyl)methyl) cyclohexanecarboxamide]
EC50: ≤ 0.5 µM

COc1ccc([C@H]2CC[C@H](CN(c3cccc(-c4coc(C(C)C)n4)c3)C(=O)[C@H]3CC[C@H](O)CC3)CC2)nc1C [Compound 10.05, trans-4-Hydroxy-N-(3-(2-isopropyloxazol-4-yl)phenyl)-N-((trans-4-(5-methoxy-6-methylpyridin-2-yl)cyclohexyl)methyl) cyclohexanecarboxamide]
EC50: ≤ 0.5 µM

COc1ccc([C@H]2CC[C@H](CN(c3cccc(-c4nc(C)no4)c3)C(=O)[C@H]3CC[C@H](O)CC3)CC2)cc1C [Compound 9.02, trans-4-Hydroxy-N-((trans-4-(4-methoxy-3-methylphenyl)cyclohexyl)methyl)-N-(3-(3-methyl-1,2,4-oxadiazol-5-yl)phenyl)cyclohexanecarboxamide]
EC50: 0.5 to 1 µM

COc1ccc([C@H]2CC[C@H](CN(c3cccc(-c4cc(C)no4)c3)C(=O)[C@H]3CC[C@H](O)CC3)CC2)cc1C [Compound 3, trans-4-Hydroxy-N-((trans-4-(4-methoxy-3-methylphenyl)cyclohexyl)methyl)-N-(3-(3-methylisoxazol-5-yl)phenyl)cyclohexanecarboxamide]
EC50: ≤ 0.5 µM

COc1ccc([C@H]2CC[C@H](CN(c3cccc(C#Cc4ccccn4)c3)C(=O)[C@H]3CC[C@H](O)CC3)CC2)cc1C [Compound 11.04, trans-4-Hydroxy-N-((trans-4-(4-methoxy-3-methylphenyl)cyclohexyl)methyl)-N-(3-(pyridine-2-ylethynyl)phenyl)cyclohexanecarboxamide]
EC50: ≤ 0.5 µM

COc1ccc(-c2cccc(N(C[C@H]3CC[C@H](c4ccc(OC)c(C)c4)CC3)C(=O)[C@H]3CC[C@H](O)CC3)c2)cn1 [Compound 1.01, trans-4-Hydroxy-N-((trans-4-(4-methoxy-3-methylphenyl)cyclohexyl)methyl)-N-(3-(6-methoxypyridin-3-yl)phenyl)cyclohexanecarboxamide]
EC50: ≤ 0.5 µM

COc1ccc([C@H]2CC[C@H](CN(c3cccc(-c4cnc(N(C)C)cn4)c3)C(=O)[C@H]3CC[C@H](O)CC3)CC2)cc1C [Compound 2]
EC50: ≤ 0.5 µM

COc1ccc([C@H]2CC[C@H](CN(c3cccc(-c4coc(C(C)C)n4)c3)C(=O)[C@H]3CC[C@H](O)CC3)CC2)cc1C [Compound 10.04, trans-4-Hydroxy-N-(3-(2-isopropyloxazol-4-yl)phenyl)-N-((trans-4-(4-methoxy-3-methylphenyl)cyclohexyl)methyl) cyclohexanecarboxamide]
EC50: ≤ 0.5 µM
